# Test results: paper PMC6043372 (Journal of medicinal chemistry, 2018)
# Tests used:
# [1] = tested on: human red blood cells; test: Compound-induced hemolysis of human red blood cells; settings: hemolyze 50% of human RBCs vs 2% Triton X-100
# [2] = 100 mg/kg po daily over 4 weeks (24 doses)
# [3] = tested on: piniBAC promoter; type: cell-based, Mycobacterium bovis BCG; settings: 0.4-100 μM, 24 h
# [4] = tested on: M. bovis BCG; type: cell-based, Mycobacterium bovis BCG
# [5] = physchem; settings: pH 7.4
# [6] = tested on: Mtb H37Rv; set-up: species or system BALB/c mice; settings: mouse, in vivo
# [7] = lecithin-dodecane lipid layer, 24 h, 25°C
# [8] = for levels in lung: CD-1, mouse, in vivo; for tolerability in PK study: 25 mg/kg PO single dose, mice
# [9] = Electrophilic reactivity to cysteamine by 1H NMR; type: physicochemical; settings: DMSO-d6, 1% acetic acid, up to 24 h
# [10] = tested on: M. bovis BCG; test: microbe, parasite or virus in culture; type: cell-based; settings: Mycobacterium tuberculosis variant bovis BCG, read-out: MIC MIC50
# [11] = tested on: M. bovis BCG; type: cell-based, Mycobacterium bovis BCG; remark: listed apart in the source
smiles,measurement,setting,value
"CCCCCCCCn1cc(CN2CCC3(CC2)OCCO3)c2ccc(OC)cc21 [Compound 1, 8-[(6-methoxy-1-octyl-1H-indolyl-3-yl)methyl]-1,4-dioxa-8-azaspiro[4,5]decane]",HC50,[1],75 µM
same,adverse effects during treatment period,[2],no adverse effects were detected
same,induction of piniBAC promoter activity,[3],broadly similar to that of isoniazid
same,kill of mycobacterial cultures by 48 h (time-kill),[4],still viable at 48h
same,solubility,[5],23.9 ± 0.8 µM
same,bacterial loads in lungs and spleen (CFU),[6],only reduced the splenic bacterial load
same,PAMPA Effective Permeability (Pe),[7],Cannot be determined
same,levels in lung,[8],~ 1 μM
CCCCCCCCn1cc(CN2CCC3(CC2)OC[C@H](C)O3)c2ccc(OC)cc21 [Compound 7],HC50,[1],51 µM
CCCCCCCCn1cc(CN2CCC3(CC2)OC[C@@H](C)O3)c2ccc(OC)cc21 [Compound 8],HC50,[1],75 µM
CCCCCCCCn1cc(CN2CCC3(CC2)OCCCO3)c2ccc(OC)cc21 [Compound 12],HC50,[1],64 µM
same,adverse effects during treatment period,[2],no adverse effects were detected
same,induction of piniBAC promoter activity,[3],increased the transcriptional activity of the piniBAC in a concentration dependent manner
same,bacterial loads in lungs and spleen (CFU),[6],significantly inhibited bacterial growth in both organs
same,PAMPA Effective Permeability (Pe),[7],Cannot be determined
same,tolerability in PK study,[8],did not cause obvious adverse effects
same,Lung concentration at 5 h,"[8]; 25 mg/kg PO, CD1 mice",1408 ng/g
same,levels in lung,[8],~ 3 μM
same,electrophilic reactivity to cysteamine,[9],limited electrophilic reactivity
CCCCCCCCn1cc(CN2CCC3(CC2)OCCCS3)c2ccc(OC)cc21 [Compound 13],induction of piniBAC promoter activity,[3],increased the transcriptional activity of the piniBAC in a concentration dependent manner
same,solubility,[5],30.9 ± 1.3 µM
same,PAMPA Effective Permeability (Pe),[7],Cannot be determined
same,tolerability in PK study,[8],did not cause obvious adverse effects
same,electrophilic reactivity to cysteamine,[9],limited electrophilic reactivity
CCCCCCCCn1cc(CN2CCC3(CC2)OCCCO3)c2ccc(C#N)cc21 [Compound 57e],MIC50,[10],0.5 to 0.7 µM
CCCCCCCCn1cc(CN2CCC3(CC2)OCCCO3)c2ccc(OCCC)cc21 [Compound 57f],MIC50,[10],0.5 to 0.7 µM
CCCCCCCCn1cc(CN2CCC3(CC2)OCCCO3)c2ccc(OC(C)C)cc21 [Compound 57g],MIC50,[10],0.5 to 0.7 µM
"CCCCCCCCn1cc(CN2CCCCCC2)c2c(F)cccc21 [Compound 71, 3-(azepan-1-ylmethyl)-4-fluoro-1-octyl-1H indole]",membrane potential (DiOC2 red/green ratio),[11],no depolarization at these early time points
